Measurements taken from patent publication US20240150398A1, “PEPTIDES AND CONJUGATES THEREOF AS ACE-2 AND S1 SUBUNIT MIMICS AGAINST SEVERE ACUTE RESPIRATORY SYNDROME CORONAVIRUS-2 (SARS-COV2) INFECTION” (priority 2020, published 2024).

Biological target: interaction between ACE-2 receptor and spike S1 protein of SARS-CoV2 (Severe acute respiratory syndrome coronavirus 2, UniProt P0DTC2)

Sequence	interaction between ACE-2 receptor and spike S1 protein in presence of peptide
DKFNHEAEDLFY [Peptide 4]	blocked
QTFDKNHEDLYLQAKQLK [Peptide 3]	blocked
